From US20230059136A1, “THE COMPOUNDS AND COMPOSITIONS FOR TREATING CONDITIONS ASSOCIATED WITH NLRP ACTIVITY” (Novartis AG, priority 2018, published 2023)
Like-named read-outs stand apart in the source and are kept apart here.

System: IL-1β production in PMA-differentiated THP-1 cells
Test: IL-1β production in PMA-differentiated THP-1 cells stimulated with gramicidin (hTHP-1 assay containing 2% fetal bovine serum)
Assay type: cell-based, human
Conditions: 2% fetal bovine serum, read-out: hTHP-1 IC50 (Average IC50 of compounds in hTHP-1 assay)
Procedure, shortened: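 THP-1 cells were differentiated with PMA 20 ng/ml for 16-18 h, then plated at 50,000 cells/well in RPMI with 2% FBS. They were preincubated 1 h with compound (100–0.0017 μM final, 0.37% DMSO), then stimulated with gramicidin 5 μM for 2 h. Supernatant IL-1β was measured by HTRF.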

[1] = Homo sapiens, THP-1, Table B1, class symbols
[2] = Homo sapiens, THP-1, Table B2, class symbols

Structure (SMILES) | IC50 [1] | IC50 (Table B1, class symbols) | further results
CC(C)c1cc2c(c(C(C)C)c1CC(=O)N=S(N)(=O)c1ccn(C(F)F)n1)COC2 (centres unmarked) [Example 243, N-(amino(1-(difluoromethyl)-1H-pyrazol-3-yl)(oxo)-λ^6-sulfaneylidene)-2-(4,6-diisopropyl-1,3-dihydroisobenzofuran-5-yl) acetamide] | 5000 to 30000 nM |  | 
CC(C)c1cc(C(F)F)nc(C(C)C)c1CC(=O)N=S(N)(=O)c1ccc(CN(C)C)cc1 (centres unmarked) [Example 258, N-(amino(4-((dimethylamino)methyl)phenyl) (oxo)-λ^6-sulfaneylidene)-2-(6-(difluoromethyl)-2,4-diisopropylpyridin-3-yl)acetamide] | 1000 to 5000 nM |  | 
CC(C)c1cc(C(F)F)cc(C(C)C)c1CC(=O)N=S(N)(=O)c1ccc(C(C)(C)O)cc1F (single isomer, unassigned) [Example 86, (S)- or (R)-2-(4-(difluoromethyl)-2,6-diisopropylphenyl)-N-(2-fluoro-4-(2-hydroxypropan-2-yl)phenylsulfonimidoyl) acetamide] |  | 1000 to 5000 nM | 
COc1cc(-c2cccc(C(C)C)c2CC(=O)N=S(N)(=O)c2cnc(C(C)(O)CO)s2)ccn1 (single isomer, unassigned) [Example 351, N-(amino(2-((S or R)-1,2-dihydroxypropan-2-yl)thiazol-5-yl)(oxo)-λ^6-sulfaneylidene)-2-(2-isopropyl-6-(2-methoxypyridin-4-yl)phenyl)acetamide] |  |  | IC50 [2]: 200 to 1000 nM
CC(C)c1cc(C#N)c(F)c(C(C)C)c1CC(=O)N=S(N)(=O)c1cnc(C(O)(CO)CO)s1 (centres unmarked) [Example 350, N-(amino(oxo)(2-(1,2,3-trihydroxypropan-2-yl)thiazol-5-yl)-λ^6-sulfaneylidene)-2-(4-cyano-3-fluoro-2,6-diisopropylphenyl)acetamide] |  |  | IC50 [2]: 200 to 1000 nM
CC(C)c1nc(-c2cccc(C(F)(F)F)c2)c(F)c(C(C)C)c1CC(=O)N=S(N)(=O)c1cnc(C(C)(C)O)s1 (centres unmarked) [Example 100, N-(amino(2-(2-hydroxypropan-2-yl)thiazol-5-yl)(oxo)-λ^6-sulfaneylidene)-2-(5-fluoro-2,4-diisopropyl-6-(3-(trifluoromethyl)phenyl)pyridin-3-yl)acetamide] | 200 to 1000 nM |  | 
CC(C)c1ccc(F)c(C(C)C)c1CC(=O)N=S(N)(=O)c1ncc(C(C)(C)O)s1 (single isomer, unassigned) [Example 187, (S) or (R)-N-(amino(5-(2-hydroxypropan-2-yl)thiazol-2-yl)(oxo)-λ^6-sulfaneylidene)-2-(3-fluoro-2,6-diisopropylphenyl) acetamide] |  | 5000 to 30000 nM | 
CCc1cc2c(c(C(C)C)c1CC(=O)N=S(N)(=O)c1sc(C(C)(C)O)cc1F)COC2 (centres unmarked) [Example 263, N-(amino(3-fluoro-5-(2-hydroxypropan-2-yl)thiophen-2-yl)(oxo)-λ^6-sulfaneylidene)-2-(6-ethyl-4-isopropyl-1,3-dihydroisobenzofuran-5-yl)acetamide] | 1000 to 5000 nM |  | 
CC(C)c1cc(C#N)c(F)c(C(C)C)c1CC(=O)N=[S@@](=O)(NC#N)c1cnc([C@](C)(O)CO)s1 [Example 370, N-((R)-cyanamido(2-((R)-1,2-dihydroxypropan-2-yl)thiazol-5-yl)(oxo)-λ^6-sulfaneylidene)-2-(4-cyano-3-fluoro-2,6-diisopropylphenyl)acetamide] |  |  | IC50 (Homo sapiens, THP-1, Table B2, cells printed as numeric bound): > 30000 nM
CCc1cc2c(c(C(C)C)c1CC(=O)N=S(N)(=O)c1cc(C(C)(C)O)cs1)COC2 (centres unmarked) [Example 245, N-(amino (4-(2-hydroxypropan-2-yl)thiophen-2-yl)(oxo)-λ^6-sulfaneylidene)-2-(6-ethyl-4-isopropyl-1,3-dihydroisobenzofuran-5-yl) acetamide] | 1000 to 5000 nM |  | 
CC(C)c1cc(C#N)c(F)c(C(C)C)c1CC(=O)N=S(N)(=O)c1cnc(C(C)(O)CO)s1 (single isomer, unassigned) [Example 336, (R, R) or (S, R)-N-(amino(2-(1,2-dihydroxypropan-2-yl)thiazol-5-yl)(oxo)-λ^6-sulfaneylidene)-2-(4-cyano-3-fluoro-2,6-diisopropylphenyl) acetamide] |  | 200 to 1000 nM | 
CC(C)c1cc(CCC2CCCCC2)cc(C(C)C)c1CC(=O)N=S(N)(=O)c1cc(C(C)(C)O)n(-c2ccccc2)n1 (centres unmarked) [Example 228, N-(amino(5-(2-hydroxypropan-2-yl)-1-phenyl-1H-pyrazol-3-yl)(oxo)-λ^6-sulfaneylidene)-2-(4-(2-cyclohexylethyl)-2,6-diisopropylphenyl)acetamide] | 5000 to 30000 nM |  | 
CC(C)c1cc(-c2ccc3c(c2)CCOC3)cc(C(C)C)c1CC(=O)N=S(N)(=O)c1sc(C(C)(C)O)nc1CO (single isomer, unassigned) [Example 271, (R) or (S)-N-(amino(4-(hydroxymethyl)-2-(2-hydroxypropan-2-yl)thiazol-5-yl)(oxo)-λ^6-sulfaneylidene)-2-(4-(isochroman-6-yl)-2,6-diisopropylphenyl) acetamide] |  | 200 to 1000 nM | 
CC(C)c1cc(F)cc(C(C)C)c1CC(=O)N=S(N)(=O)c1sc(C(C)(C)O)cc1F (centres unmarked) [Example 17, 2-(4-fluoro-2,6-diisopropylphenyl)-N-(3-fluoro-5-(2-hydroxypropan-2-yl)thiophen-2-ylsulfonimidoyl)acetamide] |  | 8 to 40 nM | 
COc1cc(-c2cccc(C(C)C)c2CC(=O)N=S(=O)(NC#N)c2cnc(C(C)(O)CO)s2)ccn1 (stereo in doubt) [Example 367, N-(cyanamido(2-((S)-1,2-dihydroxypropan-2-yl)thiazol-5-yl)(oxo)-λ^6-sulfaneylidene)-2-(2-isopropyl-6-(2-methoxypyridin-4-yl)phenyl)acetamide] |  |  | IC50 [2]: 1000 to 5000 nM
CC(C)c1cc(C#N)c(F)c(C(C)C)c1CC(=O)N=S(N)(=O)c1cnc(C(O)(CO)CO)s1 (single isomer, unassigned) [Example 403, (S) or (R)-N-(amino(oxo) (2-(1,2,3-trihydroxypropan-2-yl)thiazol-5-yl)-λ^6-sulfaneylidene)-2-(4-cyano-3-fluoro-2,6-diisopropylphenyl)acetamide] |  |  | IC50 (Table B2, class symbols): 5000 to 30000 nM
CNCc1ccc(S(N)(=O)=NC(=O)Cc2c(C(C)C)cc(C(F)F)cc2C(C)C)cc1 (single isomer, unassigned) [Example 329, (S) or (R)-N-(amino(4-((methylamino)methyl)phenyl)(oxo)-λ^6-sulfaneylidene)-2-(4-(difluoromethyl)-2,6-diisopropylphenyl) acetamide] |  |  | IC50 (Homo sapiens, THP-1, Table B1, cells printed as numeric bound): > 30000 nM
CC(C)c1cc2c(c(C(C)C)c1CC(=O)N=S(N)(=O)c1sc(CN(C)C)cc1F)COC2 (single isomer, unassigned) [Example 307, (R) or (S)-N-(amino(5-((dimethylamino)methyl)-3-fluorothiophen-2-yl)(oxo)-λ^6-sulfaneylidene)-2-(4,6-diisopropyl-1,3-dihydroisobenzofuran-5-yl)acetamide] | 200 to 1000 nM |  | 
CC(C)c1cc2c(c(C(C)C)c1CC(=O)N=[S@](=O)(NC#N)c1cnc(C(C)(C)O)s1)COC2=O [Example 361, (S)-N-(cyanamido(2-(2-hydroxypropan-2-yl)thiazol-5-yl) (oxo)-λ^6-sulfaneylidene)-2-(4,6-diisopropyl-1-oxo-1,3-dihydroisobenzofuran-5-yl)acetamide] |  |  | IC50 [2]: 1000 to 5000 nM
CCc1c2c(cc(C(C)C)c1CC(=O)N=S(N)(=O)c1cc(C(C)(C)O)cs1)COC2 (single isomer, unassigned) [Example 293, (R) or (S)-N-(amino(4-(2-hydroxypropan-2-yl)thiophen-2-yl)(oxo)-λ^6-sulfaneylidene)-2-(4-ethyl-6-isopropyl-1,3-dihydroisobenzofuran-5-yl)acetamide] |  | 200 to 1000 nM | 
